Data reported in US7314956B2, “Multifunctional carrier for the delivery of a pharmacological agent or genetic material into a cell” (Vaxim, Inc., priority 2001, dated 2008).
Read-outs that look alike come from different tables or passages of the source.

Columns and labels:
[1] = system: R5 and dual-tropic (R5/X4) HIV-1 strains; conditions: monocyte-derived macrophages (MDMs), microglia, primary CD4(+) T cells; cited from earlier work
[2] = in vitro; cited from earlier work
CD4 receptor = CD4 receptor (Homo sapiens, UniProt P01730); conditions: in vitro; cited from earlier work
[3] = system: rabbit anti peptide T antiserum; conditions: compared with the other fractions of the same adduct, FIG. 14
Procedure: HPLC fractions of succinic acid-(Glu)n conjugated to peptide T were analyzed by ELISA (i.e., enzyme linked immunosorbent assay). HPLC fractions of conjugated peptide T were diluted (1:10) in coating buffer [1.59 g sodium carbonate (Na2CO3), 2.93 g sodium bicarbonate (NaHCO3) Dissolve in 900 ml H2O, adjust pH to 9.6 with HCl and make up to 1 L]. Control net peptide T was dissolved in coating buffer with a concentration of 5 μg/ml. 100 μl of each of two peptide T preparations was added to each well of a 96-well microtiter plate (Nunc). The plate was covered with a plate sealer and incubated at 4° C. over night. Following 3 washes with PBS-Tween [phosphate buffer saline: 8.0 g sodium chloride (NaCl), 0.2 g monobasic potassium phosphate (KH2PO4), 1.15 g dibasic sodium phosphate (Na2HPO4), 0.2 g potassium chloride (KCl), Dissolve in 900 ml H2O, adjust pH to 7.4 with NaOH or HCl and make up to 1 L, PBS+0.5 ml Tween 20 per liter]. 100 μl of diluted rabbit anti peptide T antiserum (1:250, in assay diluent, 0.1% BSA and 0.1% sodium azide (NaN3) in PBS) was added to each well. The plate was sealed and incubated for 1 hour at room temperature. Following 5 washes, each well was added with 100 μl of diluted goat anti rabbit IgG alkaline phosphatase conjugate (KPL, 1:1000 dilution in assay diluent). The plate was sealed and incubated for 30 min. […] Optical density (OD) was then read at 405 nm.

Balb/c mice = conditions: i.p. 0.5 mg per immunization, day 0, 8 and 21, Freund's adjuvant, antiserum 1:100, FIG. 15
Procedure: Balb/c mice were immunized intraperitoneally with succinic acid-(glu)n-Peptide T at 0.5 mg per immunization and per animal. The antigen complex was administered with complete Freund's adjuvant (first injection) and with incomplete Freund's adjuvant for booster injections. Mice were immunized 3 times at day 0, day 8 and day 21. Mice were bled via tail vein and 15 μl of blood collected by a capillary tube was transferred into 135 μl PBS in a 12×75 tissue culture tube. Diluted mouse sera were collected after centrifugation for 10 min.
A polystyrene 96-well plate (Nunc) was coated with free peptide T at 10 μg/ml in coating (pH 9.6) overnight at 4° C. The plate was washed 3 times with wash buffer. Afterwards, 100 μl of diluted (1:100 in assay diluent) mouse antiserum from each mouse was then added to each well (each serum sample was assayed in duplicate) and incubated for 2 hours at room temperature. The plates were then washed 5 times with wash buffer. Goat anti-mouse IgG conjugated to alkaline phosphate (KPL) was diluted 1:1000 in PBS with 1% bovine serum albumin, added to the wells, and incubated for 30 min at room temperature followed by six washes with wash buffer. Substrate solution (p-Nitrophenyl phosphate, 2 mg/ml in substrate buffer) was then added. Absorbance was then measured using a microplate reader at 405 nm.

Row | Substance | replication of HIV-1 strains [1] | chemotactic activity [2] | binding of isolated gp120 and HIV-1 to the CD4 receptor (CD4 receptor) | immunoreactivity (optical density at 405 nm) ([3]; HPLC Fraction 3 (highest retention time)) | immune response (anti-peptide T antibodies, ELISA OD at 405 nm) (Balb/c mice) | immunoreactivity (optical density at 405 nm) ([3]; HPLC Fraction 2 (highest retention time))
1 | D-Ala-Ser-Thr-Thr-Thr-Asn-Tyr-Thr-NH2 [Peptide T] | inhibits replication | chemotactic activity | inhibition of the binding | – | – | –
2 | Succinic Acid-(Glu)2-(Glu)4-(Glu)8-(Peptide T)16 [Shell 3] | – | – | – | highest immunoreactivity | some mice show greater immune response | –
3 | Succinic Acid-(Glu)2-(Glu)4-(Peptide T)8 [Shell 2] | – | – | – | – | some mice show greater immune response | highest immunoreactivity
